Experimental findings from ChEMBL document CHEMBL3991601, “The target landscape of clinical kinase drugs” (Science, 2017) are described below.

SMILES strings stand for the structures. Active and inactive are the calls of the source. Rule as the data show it, for most assays here: actives have a measured Kd and inactives only a lower limit.

Assay [1] deals with Casein kinase I isoform epsilon (Homo sapiens, UniProt P49674).
Assay [2] deals with Glycogen synthase kinase-3 beta (Homo sapiens, UniProt P49841).
Assay [3] concerns the target Serine/threonine-protein kinase/endoribonuclease IRE1 (Homo sapiens, UniProt O75460).
Assay [4] has as its target T1, EKC/KEOPS complex subunit TP53RK (Homo sapiens, UniProt Q96S44).
T1 sequence (Q96S44 whole entry): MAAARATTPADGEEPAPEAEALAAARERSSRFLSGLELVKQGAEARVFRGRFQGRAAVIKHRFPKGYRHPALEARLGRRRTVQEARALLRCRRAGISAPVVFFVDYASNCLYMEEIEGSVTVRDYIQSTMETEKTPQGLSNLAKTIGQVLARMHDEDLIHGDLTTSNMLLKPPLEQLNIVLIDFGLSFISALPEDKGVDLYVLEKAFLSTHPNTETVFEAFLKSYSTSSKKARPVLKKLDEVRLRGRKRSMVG

Assay [5] concerns the target T2, cGMP-dependent protein kinase 1 (Homo sapiens, UniProt Q13976).
T2 sequence (Q13976 whole entry): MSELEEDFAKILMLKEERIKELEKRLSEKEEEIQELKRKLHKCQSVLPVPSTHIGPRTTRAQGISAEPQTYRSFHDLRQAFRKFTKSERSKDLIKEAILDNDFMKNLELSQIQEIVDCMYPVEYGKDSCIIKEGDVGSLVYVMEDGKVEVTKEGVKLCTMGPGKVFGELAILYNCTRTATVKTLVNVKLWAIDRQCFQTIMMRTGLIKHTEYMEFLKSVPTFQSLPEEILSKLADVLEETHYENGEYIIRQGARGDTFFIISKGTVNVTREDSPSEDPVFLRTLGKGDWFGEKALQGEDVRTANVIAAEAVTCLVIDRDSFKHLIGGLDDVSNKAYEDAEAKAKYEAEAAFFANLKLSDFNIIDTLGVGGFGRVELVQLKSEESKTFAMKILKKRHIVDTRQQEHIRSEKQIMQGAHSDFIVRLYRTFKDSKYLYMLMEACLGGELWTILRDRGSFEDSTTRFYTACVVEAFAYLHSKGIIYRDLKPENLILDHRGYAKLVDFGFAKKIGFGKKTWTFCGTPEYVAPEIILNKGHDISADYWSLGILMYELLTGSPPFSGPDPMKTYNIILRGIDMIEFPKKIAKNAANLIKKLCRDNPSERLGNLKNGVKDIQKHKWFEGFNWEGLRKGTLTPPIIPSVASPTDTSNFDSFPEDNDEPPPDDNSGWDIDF

For assay [6], the target named is Cyclin-dependent kinase 5 (Homo sapiens, UniProt Q00535).
Assay [7] addresses Serine/threonine-protein kinase B-raf (Homo sapiens, UniProt P15056).
Assay [8] deals with Cyclin-dependent kinase 4 (Homo sapiens, UniProt P11802).
Assay [9] addresses Adenylate kinase 2, mitochondrial (Homo sapiens, UniProt P54819).
Assay [10] deals with Mitogen-activated protein kinase 10 (Homo sapiens, UniProt P53779).
A further assay concerns the target Ephrin type-A receptor 4 (Homo sapiens, UniProt P54764).
The target of assay [11] is Cyclin-dependent kinase 12 (Homo sapiens, UniProt Q9NYV4).
The target of assay [12] is Insulin-like growth factor 1 receptor (Homo sapiens, UniProt P08069).
The target in assay [13] is T3, Mitogen-activated protein kinase 15 (Homo sapiens, UniProt Q8TD08).
T3 sequence (Q8TD08 whole entry): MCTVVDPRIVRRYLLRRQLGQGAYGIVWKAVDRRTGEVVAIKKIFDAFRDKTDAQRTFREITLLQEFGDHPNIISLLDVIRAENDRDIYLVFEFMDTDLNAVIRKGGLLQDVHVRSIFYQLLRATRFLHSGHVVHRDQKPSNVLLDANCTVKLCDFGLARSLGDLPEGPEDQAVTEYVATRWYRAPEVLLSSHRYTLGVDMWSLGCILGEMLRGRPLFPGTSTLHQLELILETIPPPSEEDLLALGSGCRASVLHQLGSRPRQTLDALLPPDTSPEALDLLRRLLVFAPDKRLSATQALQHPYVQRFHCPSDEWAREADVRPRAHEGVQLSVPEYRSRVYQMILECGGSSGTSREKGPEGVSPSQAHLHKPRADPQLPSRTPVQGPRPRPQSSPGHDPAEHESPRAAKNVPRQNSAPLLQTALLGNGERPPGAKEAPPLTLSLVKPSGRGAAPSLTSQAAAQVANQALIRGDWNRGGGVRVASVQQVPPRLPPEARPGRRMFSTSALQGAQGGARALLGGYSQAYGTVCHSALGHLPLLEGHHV

Assay [14] has as its target Dual specificity protein kinase CLK1 (Homo sapiens, UniProt P49759).
Assay [15] deals with T4, Signal recognition particle receptor subunit alpha (Homo sapiens, UniProt P08240).
T4 sequence (P08240 whole entry): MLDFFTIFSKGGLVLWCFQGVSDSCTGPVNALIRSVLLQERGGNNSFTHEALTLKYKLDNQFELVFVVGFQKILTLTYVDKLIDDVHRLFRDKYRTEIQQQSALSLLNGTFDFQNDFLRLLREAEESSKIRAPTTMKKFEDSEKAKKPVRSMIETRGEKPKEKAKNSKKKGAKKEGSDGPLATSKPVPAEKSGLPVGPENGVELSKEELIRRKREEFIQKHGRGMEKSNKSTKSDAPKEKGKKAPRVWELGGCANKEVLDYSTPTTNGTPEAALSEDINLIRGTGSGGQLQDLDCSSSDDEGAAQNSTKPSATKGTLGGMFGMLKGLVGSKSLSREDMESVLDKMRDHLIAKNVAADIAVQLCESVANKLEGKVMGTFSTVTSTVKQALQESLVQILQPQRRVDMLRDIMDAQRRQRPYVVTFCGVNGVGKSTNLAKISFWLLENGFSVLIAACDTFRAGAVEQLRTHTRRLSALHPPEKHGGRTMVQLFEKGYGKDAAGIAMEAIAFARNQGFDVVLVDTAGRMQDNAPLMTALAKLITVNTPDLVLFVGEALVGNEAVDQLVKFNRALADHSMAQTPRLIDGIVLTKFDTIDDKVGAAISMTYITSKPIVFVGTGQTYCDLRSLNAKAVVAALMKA
Also: in the data inactive means no Kd found up to 30 µM.

Sequence of Casein kinase I isoform epsilon (P49674 whole entry, canonical isoform): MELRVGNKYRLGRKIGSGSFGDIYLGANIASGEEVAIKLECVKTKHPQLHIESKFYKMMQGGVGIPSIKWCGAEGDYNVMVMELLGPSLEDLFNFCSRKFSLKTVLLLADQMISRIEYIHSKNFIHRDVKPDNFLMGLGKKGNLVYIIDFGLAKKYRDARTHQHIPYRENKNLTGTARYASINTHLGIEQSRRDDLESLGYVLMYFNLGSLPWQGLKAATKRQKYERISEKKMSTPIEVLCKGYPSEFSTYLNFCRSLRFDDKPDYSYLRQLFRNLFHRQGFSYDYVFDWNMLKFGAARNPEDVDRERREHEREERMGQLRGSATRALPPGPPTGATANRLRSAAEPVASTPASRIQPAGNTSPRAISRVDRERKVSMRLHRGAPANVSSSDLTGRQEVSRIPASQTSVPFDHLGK
Sequence of Insulin-like growth factor 1 receptor (P08069 31-736 limits assumed): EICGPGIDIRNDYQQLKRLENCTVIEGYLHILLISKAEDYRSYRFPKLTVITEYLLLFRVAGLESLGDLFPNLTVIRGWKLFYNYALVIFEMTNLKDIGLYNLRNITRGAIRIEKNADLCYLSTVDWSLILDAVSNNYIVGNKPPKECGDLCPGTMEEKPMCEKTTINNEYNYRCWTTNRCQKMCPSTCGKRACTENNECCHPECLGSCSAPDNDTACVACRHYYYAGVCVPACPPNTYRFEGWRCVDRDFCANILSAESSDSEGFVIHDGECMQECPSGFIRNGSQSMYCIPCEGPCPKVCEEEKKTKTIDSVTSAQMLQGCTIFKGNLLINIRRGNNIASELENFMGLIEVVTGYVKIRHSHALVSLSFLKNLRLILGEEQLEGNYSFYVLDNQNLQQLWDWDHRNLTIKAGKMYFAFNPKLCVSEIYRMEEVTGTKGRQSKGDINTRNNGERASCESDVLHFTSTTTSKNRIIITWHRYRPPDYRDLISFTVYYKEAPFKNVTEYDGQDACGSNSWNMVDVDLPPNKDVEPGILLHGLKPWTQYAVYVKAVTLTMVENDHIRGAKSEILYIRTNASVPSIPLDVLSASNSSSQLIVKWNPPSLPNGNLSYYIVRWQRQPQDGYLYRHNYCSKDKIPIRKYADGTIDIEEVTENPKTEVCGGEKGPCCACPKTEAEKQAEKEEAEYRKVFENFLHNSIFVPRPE
Sequence of Insulin-like growth factor 1 receptor (P08069 741-1367 limits assumed): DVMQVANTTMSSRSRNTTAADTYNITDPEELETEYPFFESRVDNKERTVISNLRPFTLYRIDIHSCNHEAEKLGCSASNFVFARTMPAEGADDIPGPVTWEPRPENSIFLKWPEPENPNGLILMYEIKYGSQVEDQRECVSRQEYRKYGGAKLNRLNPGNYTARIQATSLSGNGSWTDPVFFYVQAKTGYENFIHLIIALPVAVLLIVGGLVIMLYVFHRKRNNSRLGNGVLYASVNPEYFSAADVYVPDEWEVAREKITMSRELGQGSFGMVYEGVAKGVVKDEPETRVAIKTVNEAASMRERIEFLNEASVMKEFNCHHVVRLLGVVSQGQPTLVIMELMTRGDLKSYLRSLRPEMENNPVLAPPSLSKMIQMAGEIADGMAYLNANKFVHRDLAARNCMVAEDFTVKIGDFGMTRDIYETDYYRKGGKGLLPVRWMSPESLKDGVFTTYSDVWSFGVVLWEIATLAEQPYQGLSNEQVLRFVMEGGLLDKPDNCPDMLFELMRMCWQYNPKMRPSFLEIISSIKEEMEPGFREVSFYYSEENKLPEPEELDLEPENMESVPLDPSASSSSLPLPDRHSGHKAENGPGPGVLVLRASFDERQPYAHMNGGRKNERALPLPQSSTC
Sequence of Cyclin-dependent kinase 4 (P11802 whole entry): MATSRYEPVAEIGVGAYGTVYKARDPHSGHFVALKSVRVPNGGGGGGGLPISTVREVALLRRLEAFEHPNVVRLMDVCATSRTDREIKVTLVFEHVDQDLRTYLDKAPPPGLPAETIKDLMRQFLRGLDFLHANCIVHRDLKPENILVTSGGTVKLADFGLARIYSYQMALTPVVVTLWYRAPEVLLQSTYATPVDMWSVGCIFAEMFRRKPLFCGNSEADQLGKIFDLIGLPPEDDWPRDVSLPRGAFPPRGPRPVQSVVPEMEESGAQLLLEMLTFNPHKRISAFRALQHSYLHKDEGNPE
Sequence of Cyclin-dependent kinase 5 (Q00535 whole entry): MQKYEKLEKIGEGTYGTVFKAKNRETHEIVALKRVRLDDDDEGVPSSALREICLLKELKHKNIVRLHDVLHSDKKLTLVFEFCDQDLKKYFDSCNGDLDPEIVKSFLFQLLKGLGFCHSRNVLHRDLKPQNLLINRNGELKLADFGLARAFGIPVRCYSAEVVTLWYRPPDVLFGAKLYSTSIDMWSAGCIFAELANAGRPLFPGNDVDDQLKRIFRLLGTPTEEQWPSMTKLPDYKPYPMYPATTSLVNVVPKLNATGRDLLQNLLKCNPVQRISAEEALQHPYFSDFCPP
Sequence of Ephrin type-A receptor 4 (P54764 whole entry): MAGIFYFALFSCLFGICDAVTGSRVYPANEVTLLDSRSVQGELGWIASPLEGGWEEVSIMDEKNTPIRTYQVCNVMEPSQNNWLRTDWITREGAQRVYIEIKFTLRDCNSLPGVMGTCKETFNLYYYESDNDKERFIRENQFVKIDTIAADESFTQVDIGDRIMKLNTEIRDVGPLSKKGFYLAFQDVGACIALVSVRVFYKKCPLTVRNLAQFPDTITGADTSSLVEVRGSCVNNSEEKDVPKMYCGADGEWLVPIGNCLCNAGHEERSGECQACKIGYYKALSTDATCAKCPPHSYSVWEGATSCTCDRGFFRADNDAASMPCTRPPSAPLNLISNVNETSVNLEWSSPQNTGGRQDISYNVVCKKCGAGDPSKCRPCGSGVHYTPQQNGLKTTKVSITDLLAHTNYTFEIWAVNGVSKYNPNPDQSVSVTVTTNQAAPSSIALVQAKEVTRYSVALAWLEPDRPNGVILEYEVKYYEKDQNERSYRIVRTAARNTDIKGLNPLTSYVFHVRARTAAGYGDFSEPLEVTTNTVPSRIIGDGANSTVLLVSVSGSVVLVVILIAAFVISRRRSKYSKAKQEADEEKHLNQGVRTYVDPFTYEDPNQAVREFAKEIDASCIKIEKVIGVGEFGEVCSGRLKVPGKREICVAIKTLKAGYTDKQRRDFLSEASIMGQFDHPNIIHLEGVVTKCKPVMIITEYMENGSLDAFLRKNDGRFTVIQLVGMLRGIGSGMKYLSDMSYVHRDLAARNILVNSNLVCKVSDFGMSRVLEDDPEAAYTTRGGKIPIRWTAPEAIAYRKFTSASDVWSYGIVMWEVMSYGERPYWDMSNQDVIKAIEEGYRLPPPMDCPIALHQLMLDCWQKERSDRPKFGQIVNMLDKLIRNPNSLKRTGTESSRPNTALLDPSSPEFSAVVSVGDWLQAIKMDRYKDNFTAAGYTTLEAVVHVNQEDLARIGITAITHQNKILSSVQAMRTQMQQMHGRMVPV
Sequence of Glycogen synthase kinase-3 beta (P49841 whole entry): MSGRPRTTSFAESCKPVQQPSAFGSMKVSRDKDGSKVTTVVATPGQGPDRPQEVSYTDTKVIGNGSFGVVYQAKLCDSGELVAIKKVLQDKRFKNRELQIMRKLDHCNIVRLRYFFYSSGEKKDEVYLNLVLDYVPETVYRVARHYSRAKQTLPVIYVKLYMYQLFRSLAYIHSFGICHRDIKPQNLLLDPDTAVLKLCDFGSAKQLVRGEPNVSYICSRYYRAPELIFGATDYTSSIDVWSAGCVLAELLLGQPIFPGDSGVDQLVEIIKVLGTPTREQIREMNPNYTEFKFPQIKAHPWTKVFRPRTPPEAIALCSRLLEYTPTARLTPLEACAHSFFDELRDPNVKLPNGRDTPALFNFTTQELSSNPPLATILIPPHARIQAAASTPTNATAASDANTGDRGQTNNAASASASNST
Sequence of Dual specificity protein kinase CLK1 (P49759 whole entry): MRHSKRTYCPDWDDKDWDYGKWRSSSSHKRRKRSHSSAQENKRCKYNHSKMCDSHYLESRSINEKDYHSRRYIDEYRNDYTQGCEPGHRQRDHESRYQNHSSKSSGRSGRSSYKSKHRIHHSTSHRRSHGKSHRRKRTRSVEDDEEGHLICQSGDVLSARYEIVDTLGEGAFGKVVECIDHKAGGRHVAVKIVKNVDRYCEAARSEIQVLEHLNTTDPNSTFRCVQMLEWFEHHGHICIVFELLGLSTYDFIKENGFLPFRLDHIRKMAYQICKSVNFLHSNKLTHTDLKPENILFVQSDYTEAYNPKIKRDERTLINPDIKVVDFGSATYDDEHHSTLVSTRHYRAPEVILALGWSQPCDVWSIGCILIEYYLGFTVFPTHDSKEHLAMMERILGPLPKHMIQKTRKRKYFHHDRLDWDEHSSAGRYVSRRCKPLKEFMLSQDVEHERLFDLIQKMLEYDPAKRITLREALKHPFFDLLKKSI
Sequence of Mitogen-activated protein kinase 10 (P53779 whole entry): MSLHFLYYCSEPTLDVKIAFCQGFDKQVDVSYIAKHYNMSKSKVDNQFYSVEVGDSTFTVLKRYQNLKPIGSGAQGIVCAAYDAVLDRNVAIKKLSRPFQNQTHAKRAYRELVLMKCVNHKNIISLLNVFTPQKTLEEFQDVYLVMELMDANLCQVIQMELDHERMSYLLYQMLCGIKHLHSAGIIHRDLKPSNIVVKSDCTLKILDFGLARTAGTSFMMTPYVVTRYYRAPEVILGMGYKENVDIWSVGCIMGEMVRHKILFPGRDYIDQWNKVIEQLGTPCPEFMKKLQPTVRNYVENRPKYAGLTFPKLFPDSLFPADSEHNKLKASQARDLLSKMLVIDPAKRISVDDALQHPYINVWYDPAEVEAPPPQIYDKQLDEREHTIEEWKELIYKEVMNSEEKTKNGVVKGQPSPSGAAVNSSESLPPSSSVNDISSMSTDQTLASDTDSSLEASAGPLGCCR

On to `C[C@H]1CNCCCN1S(=O)(=O)c1cccc2cncc(F)c12`, for which the Kd in assay [1], in [2], in [3], in assay [4], in assay [5] and in [6] was > 30 µM (inactive) in each case. Also, the Kd (in [7]; in [8]; in assay [9]; in assay [10]; on Ephrin type-A receptor 4; in assay [11]) was > 30 µM (inactive) in each case. For the same molecule, in assay [12], the Kd was > 30 µM (inactive).
Turning to `Nc1ncnc2c1c(-c1cccc(OCc3ccccc3)c1)cn2[C@H]1C[C@@H](CN2CCC2)C1` [AEW-541], the Kd in assay [1] is 60.5 µM (active); in assay [2], > 30 µM (inactive); in assay [3] it was > 30 µM (inactive); in [4] it was > 30 µM (inactive); in assay [5], > 30 µM (inactive); in [6] it was > 30 µM (inactive). For the same molecule, the Kd (in assay [7]; in [8]; in assay [9]; in [10]; at Ephrin type-A receptor 4; in assay [11]) was > 30 µM (inactive) throughout. Further, the Kd in assay [13] is > 30 µM (inactive).
For the molecule `CNC(=O)c1cccc2cc(Oc3ccnc4cc(OCC5(N)CC5)c(OC)cc34)ccc12` [LUCITANIB], the Kd in assay [1], in assay [14], in [2], in [3], in assay [15] and in assay [4] was > 30 µM (inactive) in each case. The Kd (in assay [5]; in [6]; in assay [8]; in assay [9]; in assay [10]; at Ephrin type-A receptor 4) was > 30 µM (inactive) throughout. In addition, the Kd in [11], in [13] and in assay [12] was > 30 µM (inactive) in each case.
Turning to `NC1(c2ccc(-c3nc4ccn5c(=O)[nH]nc5c4cc3-c3ccccc3)cc2)CCC1` [MK-2206], the Kd in assay [1], in [14], in assay [2], in assay [3], in assay [15] and in assay [4] was > 30 µM (inactive) throughout. For the same molecule, the Kd (in assay [5]; in [6]; in assay [8]; in assay [9]; in [10]; on Ephrin type-A receptor 4) was > 30 µM (inactive) throughout. The Kd in assay [11], in assay [13] and in [12] was > 30 µM (inactive) in each case.
In the case of `COc1ncc(-c2ccc3nccc(-c4ccnnc4)c3c2)cc1NS(=O)(=O)c1ccc(F)cc1F` [OMIPALISIB], the Kd in assay [1], in assay [14], in [2], in assay [3], in assay [15] and in assay [4] was > 30 µM (inactive) throughout. Also, the Kd (in [5]; in assay [6]; in assay [8]; in [9]; in [10]; on Ephrin type-A receptor 4) was > 30 µM (inactive) in each case. For the same molecule, the Kd in assay [11], in [13] and in assay [12] was > 30 µM (inactive) each time.
Take `Cc1cnc(NC(=O)Nc2cc(Br)c(C)cc2OC[C@@H]2CNCCO2)cn1` [RABUSERTIB]: the Kd in assay [1], in [14], in assay [2], in [3], in [15] and in assay [4] was > 30 µM (inactive) each time. Also, the Kd (in assay [5]; in assay [6]; in [8]; in [9]; in [10]; at Ephrin type-A receptor 4) was > 30 µM (inactive) in each case. The Kd in assay [11], in assay [13] and in assay [12] was > 30 µM (inactive) throughout.
For the molecule `CCS(=O)(=O)c1cccc(-c2cc(C(=O)NC3CCN(C)CC3)c(C)c3[nH]c4ncc(C)cc4c23)c1` [TAK-901], the Kd in assay [1] is > 30 µM (inactive); in assay [14], > 30 µM (inactive); in [2], 6.17 µM (active); in assay [3], > 30 µM (inactive); in assay [15], > 30 µM (inactive); in assay [4], > 30 µM (inactive). In addition, the Kd in [5] was > 30 µM (inactive); in assay [6], > 30 µM (inactive); in assay [8], > 30 µM (inactive); in [9], > 30 µM (inactive); in [10] it was > 30 µM (inactive); on Ephrin type-A receptor 4 it was 0.022 µM (active). The Kd in [11], in assay [13] and in assay [12] was > 30 µM (inactive) in each case.
Consider `COc1cc2c(Nc3ccc(Cl)c(Cl)c3F)ncnc2cc1OC[C@@H]1C[C@@H]2CN(C)C[C@@H]2C1` [TESEVATINIB], for which the Kd in assay [1] is 1.02 µM; in assay [14] it was > 30 µM (inactive); in assay [2], > 30 µM (inactive); in assay [3], > 30 µM (inactive); in [15] it was > 30 µM (inactive); in assay [4], > 30 µM (inactive). The Kd is > 30 µM (inactive) in assay [5]; > 30 µM (inactive) in assay [6]; > 30 µM (inactive) in assay [8]; > 30 µM (inactive) in assay [9]; > 30 µM (inactive) in assay [10]; 0.44 µM (active) on Ephrin type-A receptor 4. The Kd in assay [11], in assay [13] and in assay [12] was > 30 µM (inactive) in each case.

As a reminder, the Kd is the concentration at which binding is half-saturated.
